The values that follow come from patent publication US20200016134A1, “COMPOSITIONS AND METHODS FOR TREATING SUBSTANCE ABUSE DISORDERS” (EMBERA NEUROTHERAPEUTICS, INC., priority 2016, published 2020).

Data set [1] concerns adult male Wistar rats. As to the kind of experiment: Intravenous cocaine self-administration under a multiple, alternating schedule of food reinforcement and cocaine self-administration. In kind it is in vivo, rat. To be noted: for cocaine self-administration and reinstatement of extinguished cocaine seeking: pretreatment with the single drug, summary of the studies.
Description: Adult male Wistar rats were trained under a multiple, alternating schedule of cocaine and food self-administration. This schedule consisted of alternating periods of cocaine access and food reinforcement. In some instances, as described further below, three doses of cocaine (0.125, 0.25, or 0.50 mg/kg/infusion) were tested. Rats were also periodically trained with saline substitution (cocaine extinction) and food extinction during the same session.
More specifically, adult male Wistar rats were implanted with chronic jugular catheters. Following recovery from surgery, the rats were trained to respond under a multiple, alternating schedule of food reinforcement and cocaine self-administration. Food-maintained responding was used to control for the non-specific motor effects of the various treatments. During the food component of the schedule, the stimulus light located above the food response lever was illuminated to indicate the availability of food reinforcement. […] A 25-second timeout followed the delivery of each food pellet. During this timeout, the stimulus light was darkened and responses on the food lever were counted but had no scheduled consequences. Responding on the other (cocaine) lever during the food component also had no scheduled consequences. […] Following 15 minutes of access to food, all stimulus lights in the chamber were darkened for a 1-minute timeout. Following the timeout, the stimulus light above the cocaine response lever was illuminated to indicate the availability of cocaine (0.125, 0.25, or 0.5 mg/kg/infusion). […] A 20-second timeout period followed each infusion. […] After 15 minutes of access to cocaine and a 1-minute timeout, the rats were again allowed 15 minutes access to the food component of the schedule. Access to food and cocaine alternated in this manner every 15 minutes during the two hour behavioral sessions so that each rat was exposed to food and cocaine for four 15-minute periods each. Each behavioral session began with 15 minutes access to either food or cocaine, and this alternated daily. Stable baselines of responding were established when the total number of cocaine and food presentations, as well as the number of presentations during each of the four exposures each session, varied less than 10% for three consecutive sessions. At least three different doses of cocaine (e.g., 0.125, 0.25, and 0.5 mg/kg/infusion) were tested. Rats were first trained to self-administer 0.25 mg/kg/infusion, which was the standard dose of cocaine used. When responding stabilized, the dose was changed to 0.125 or 0.5 mg/kg/infusion as appropriate.
Once stable baselines of responding were obtained, dose-response curves for the various compounds were individually generated for each rat. Rats were treated with each dose at least twice with a minimum of two days of baseline cocaine self-administration interspersed between each test. Each group of rats was tested with only two of the test compounds to minimize potential carryover effects.
In another data set the test system is rats. The conditions noted are these: Goeders et al., cited from earlier work.
The subject of the next data set is male Wistar rats. As to the kind of experiment: Forced Swim Test (FST), animal model of depression.
Data set [2] concerns adult male Wistar rats. As to the kind of experiment: Cue-induced reinstatement of extinguished cocaine seeking (model of relapse). To be noted: FIG. 11; chronic metyrapone 50 mg/kg ip, once per day for 14 days. It counts as in vivo, rat. As to the method: Training to self-administer cocaine: In one model, rats were exposed to alternating 15-minute periods of access to cocaine self-administration and food reinforcement. Food was used to control for potential nonspecific, ataxis effects of the drugs and combinations. […] In this model, rats are trained to self-administer cocaine and the ability of conditioned cues in the environment to reinstate extinguished responding is assessed and taken as a measure of relapse.
Cue-induced Reinstatement of Extinguished Cocaine Seeking: The experiments described herein were designed to investigate whether or not drug combinations identified as effective in reducing cocaine self-administration would also block the ability of conditioned cues to reinstate extinguished cocaine-seeking behavior. Adult male Wistar rats were implanted with chronic jugular catheters and trained to self-administer cocaine (0.25 mg/kg/infusion) by pressing one of the response levers in the experimental chamber (i.e., the “active” or “cocaine” lever) under a fixed-ratio four (FR4) schedule of reinforcement during daily 2-hour sessions conducted 5 days per week. At the start of each session, both levers were extended into the chamber and the stimulus light above the active lever was illuminated to indicate the availability of cocaine. […] A 20-second timeout period followed each infusion. […]

A short description of data set [3]: Phase I single- and multiple-rising dose study: plasma pharmacokinetics. To be noted: human, in vivo. As to the method: METHODS: This was a single- and multiple-rising dose study. Healthy volunteers who smoke, aged 18-65, received a single AM dose on Day 1, BID dosing on Days 3-9 and a single AM dose on Day 10. Three sequential dose cohorts of 8 subjects (6 drug, 2 placebo) received the following doses of MET and OX, respectively: 270 and 12 mg; 540 and 24 mg; and 720 and 24 mg. Total daily doses were double these amounts on BID dosing days. Primary outcomes were safety and pharmacokinetics of MET, its active metabolite (metyrapol), and OX. Safety measures included vital signs, ECGs an standard safety labs. Cortisol and other HPA axis parameters were monitored closely throughout the study.

The mark [4] stands for this setting: FIG. 8, high dose alone: muscimol 1-4 mg/kg ip, CP-154,526 10-80 mg/kg ip.
Setting [5] is: FIG. 8, low, ineffective doses alone: muscimol 0.5-2.0 mg/kg ip, CP-154,526 5-25 mg/kg ip.
Where [6] appears, read: FIG. 3, low, ineffective doses alone: alprazolam 0.2-2 mg/kg ip, ketoconazole 5-75 mg/kg ip.
[7] abbreviates: FIG. 7, high dose alone: metyrapone 25-175 mg/kg ip, alprazolam 1-5 mg/kg ip.
Where [8] appears, read: FIG. 7, low, ineffective doses alone: metyrapone 25-50 mg/kg ip, alprazolam 0.5-2 mg/kg ip.
The mark [9] stands for this setting: FIG. 9, high dose alone: muscimol 1-4 mg/kg ip, metyrapone 25-175 mg/kg ip.

Regarding `CCCCN(CC)c1nc(C)nc2c1c(C)cn2-c1c(C)cc(C)cc1C` [CP-154,526], the “cocaine self-administration (infusions, percentage of baseline)” value with adult male Wistar rats [1] (FIG. 6, high dose alone: CP-154,526 10-80 mg/kg ip, oxazepam 5-25 mg/kg ip) is given as “reduced cocaine self-administration”; in the data set on adult male Wistar rats [1] (FIG. 6, low, ineffective doses alone: CP-154,526 5-25 mg/kg ip, oxazepam 5-25 mg/kg ip), “did not significantly affect cocaine self-administration”; in the data set with adult male Wistar rats [1] (setting [4]), “reduced cocaine self-administration”; in the data set with adult male Wistar rats [1] (setting [5]), “did not significantly affect cocaine self-administration”. In the data set on adult male Wistar rats [1] (rats), the “cocaine self-administration and reinstatement of extinguished cocaine seeking” value is “decrease cocaine self-administration and the reinstatement of extinguished cocaine seeking”.
For `Cc1nnc2n1-c1ccc(Cl)cc1C(c1ccccc1)=NC2` [alprazolam], the results for the “cocaine self-administration (number of cocaine infusions)” value in the data set on adult male Wistar rats [1] (setting [6]), with adult male Wistar rats [1] (setting [7]) and with adult male Wistar rats [1] (setting [8]) were “did not significantly affect cocaine self-administration”, “reduced cocaine self-administration” and “did not significantly affect cocaine self-administration”, respectively. The “cocaine self-administration and reinstatement of extinguished cocaine seeking” value in the data set on adult male Wistar rats [1] (rats) is “decrease cocaine self-administration and the reinstatement of extinguished cocaine seeking”. Further, the “responding maintained by food and cocaine” value in the data set on rats (multiple schedule of iv cocaine and food reinforcement, initial testing, 1993) is “reduced responding maintained by both food and cocaine”.
Regarding `CC(=O)N1CCN(c2ccc(OCC3COC(Cn4ccnc4)(c4ccc(Cl)cc4Cl)O3)cc2)CC1` (stereo not drawn) [ketoconazole], the “cocaine self-administration (number of cocaine infusions)” value with adult male Wistar rats [1] (setting [6]) is “did not significantly affect cocaine self-administration”. Besides, the “cocaine- or food-maintained responding” value in the data set on adult male Wistar rats [1] (ketoconazole 12.5 mg/kg tested alone) is listed as “no effect”. In addition, the “cocaine self-administration (number of cocaine infusions)” value in the data set on adult male Wistar rats [1] (rat, in vivo) is reported as “did not significantly affect cocaine self-administration”. For the same compound, in the data set on adult male Wistar rats [1] (rats), the “minimally effective dose (reduces cocaine self-administration by at least 50% without affecting food-maintained responding)” value was 25 mg/kg; the “cocaine self-administration and reinstatement of extinguished cocaine seeking” value was “decrease cocaine self-administration and the reinstatement of extinguished cocaine seeking”. In addition, the intravenous cocaine self-administration result in the data set with rats (pretreatment) was “reduced cocaine self-administration”.
Take `CC(C)(C(=O)c1cccnc1)c1cccnc1` [metyrapone]: the immobility time result in the data set with male Wistar rats (chronic administration, single drug, Met50 group (metyrapone 50 mg/kg)) is on record as “showed a lessening of immobility time”. Further, the “group means of immobility compared with vehicle (tolerance)” value in the data set on male Wistar rats (chronically treated groups that received only Ox or Met) is listed as “equal to or exceeded the vehicle”. Besides, the “cocaine self-administration (number of cocaine infusions)” value in the data set with adult male Wistar rats [1] (FIG. 1A, high dose alone: metyrapone 25-175 mg/kg ip, oxazepam 5-80 mg/kg ip) was “reduced cocaine self-administration”; in the data set on adult male Wistar rats [1] (setting [7]), “reduced cocaine self-administration”; in the data set with adult male Wistar rats [1] (setting [8]) it was “did not significantly affect cocaine self-administration”. The “cocaine self-administration (infusions, percentage of baseline)” value in the data set on adult male Wistar rats [1] (setting [9]) was “reduced cocaine self-administration”. In the data set on adult male Wistar rats [1] (rats), the “cocaine self-administration and reinstatement of extinguished cocaine seeking” value is “decrease cocaine self-administration and the reinstatement of extinguished cocaine seeking”. The plasma corticosterone result in the data set with rats (pretreatment, 1996) is given as “significant dose-related decreases”. The intravenous cocaine self-administration entry with rats (pretreatment) is given as “significant dose-related decreases”. The “cocaine seeking (responding on the active lever during reinstatement)” value with adult male Wistar rats [2] is listed as “reduced cocaine seeking to levels seen when only saline was delivered”. The “t1/2, mean” value in data set [3] is 1.887 h.
Consider `NCc1cc(=O)[nH]o1` [muscimol], for which the “cocaine self-administration (infusions, percentage of baseline)” value is “reduced cocaine self-administration” in the data set with adult male Wistar rats [1] (setting [4]), “did not significantly affect cocaine self-administration” in the data set with adult male Wistar rats [1] (setting [5]) and “reduced cocaine self-administration” with adult male Wistar rats [1] (setting [9]).
